Results as given in patent US20090221530A1, “Relaxase Modulators and Methods of Using Same” (priority 2005, published 2009).
Values after ≈ are worked out from the molar mass of the structure shown. Where two headings read alike, the source gives them in different places.

Experiments:
F− recipient cells = experiment: microbe, parasite or virus in culture; format: cell-based, E. coli; conditions: for EC50: Escherichia coli, 100 min, vs. F− recipient cells, read-out: 100 minute EC50; for Selectivities by EC50, Donors: listed as vs. F− recipient cells relative to donors; for Selectivities by EC50, Transconj.: listed as vs. F− recipient cells relative to transconjugants
Excerpt: (§1) A 96-well fluorescence-based assay using oxygen biosensor plates (Becton Dickinson, Franklin Lakes, N.J., U.S.A.) was employed to monitor bacterial cell survival. FIG. 7 schematically illustrates the assay mechanism of action. […] In the absence of viable bacteria, however, no fluorescence emission is detected because the fluorophore is quenched by free oxygen. The assay can further be utilized to measure conjugative DNA transfer.
(§2) Relaxase-dependent cell survival was examined by placing cultures of F+/TraI+ E. coli cells (with antibiotic resistance, e.g., Ab^r1, on a non-conjugative plasmid) within wells and exposing them to putative inhibitory compounds. […] Negative controls for this assay can be F− (Ab^r2) cells and F+ cells (Ab^r1) containing either no F plasmid relaxase (TraI) gene, or a TraI harboring catalytic tyrosine to phenylalanine mutations; in both cases, these control cells should be resistant to relaxase-dependent cell toxicity. […] Fluorescence can be measured using a PHERASTAR™ fluorescence plate reader (BMG LABTECH, Offenburg, Germany) over 8 hours time.

transconjugants = experiment: microbe, parasite or virus in culture; format: cell-based, E. coli; conditions: for EC50: Escherichia coli, 100 min, read-out: 100 minute EC50, vs. transconjugants; for Selectivities by EC50, Donors: listed as vs. transconjugants relative to donors
Excerpt: as §1, §2

F+ or F− cells = experiment: 24 hr. MIC bounds (turbid/clear wells); format: cell-based, E. coli; conditions: Escherichia coli, 8x serial dilutions, bounds identical for F+ or F− cells
F plasmid TraI N300 = target: T1, F plasmid TraI N300 (Escherichia coli, UniProt P14565); experiment: Fluorescence kinetic assay of oriT DNA cleavage and crossover by TraI N300; format: biochemical, E. coli
T1 construct: An amino-terminal 300 residue F plasmid TraI construct; made in house; host or cells: E. coli BL21 (DE3)/pLysS or HMS174 (DE3)/pLysS, vector pTYB2
Method: Reaction Buffer: 6.42 mM MgCl2, 20.5% glycerol, 153.9 mM NaCl, and 51.3 mM Tris-HCl pH 7.5. Streptavidin Wash Buffer (Tris buffered saline, TBS/Tween): and 150 mM NaCl, 25 mM Tris-HCl pH 7.5, and 0.05% Tween-20. Stopping Buffer: 1.2% sodium-dodecyl sulfate (SDS), and 300 mM EDTA pH 10. TE Buffer: 1 mM EDTA, and 10 mM Tris-HCl pH 7.4. Fluorescence Buffer: 80% glycerol, 200 mM Tris-HCl pH 8.0. Short-term N300 stock (for storage at −20° C.): 50% Reaction Buffer, 49.8% glycerol, 0.2% long-term protein solution (84.6 nM final N300 concentration). All 5× stocks except Probe stocks were diluted in Reaction Buffer. 5× Enzyme Stock: 8.4 mL short-term N300 stock diluted to 2.02 nM N300. 5× Inhibitor Stocks: imidodiphosphate (pNp) at 0-50 nM in Reaction Buffer. 5× Substrate Stocks: oligonucleotides b29 and PCb31eco diluted to […] each, by 3-fold serial dilutions. 5× Probe Stocks: […] (1.2-fold molar excess) oligonucleotide downF in TE Buffer. All reactions and procedures involving downF were assembled or performed in darkened conditions. Solutions and microtiter plates containing downF were kept in foil-lined containers at all times to prevent photobleaching.
Two oriT derived oligonucleotides, b29 and PCb31eco, were designed for binding and cleavage by TraI based on past studies (see Oligonucleotides section herein; FIG. 4A). The overall method is modified from those described previously for the study of TraI and R388TrwC (Byrd et al., 2002; Grandoso et al., 2000; Matson and Morton, 1991). Reactions were assembled from 16 μL of 5× Substrate Stock, 16 μL of 5× Inhibitor Stock, and 32 μL of Reaction Buffer. 80 μL reactions were initiated with 16 μL of 5× Enzyme Stock and raised to 37° C. 10 μL samples were removed at eight time points (optimized to define timecourses) and stopped in 10 μL of Stopping Buffer at room temperature. Stopped reactions were placed on a 100° C. heat block for one minute, spiked with 2 μL of 5× Probe Stock while still hot, and incubated at 37° C. for 10 minutes (see Kinetic Assay Formulations for probe handling).
Samples were diluted to […] with Streptavidin Wash Buffer and transferred to Biobind Assembly streptavidin-coated microtiter plates (Thermo Electron Corporation, Waltham, Mass., U.S.A.) and incubated at 37° C. for 45 minutes. Plates were washed with at least 5-fold excess Streptavidin Wash Buffer (in an inverted position to prevent excess biotinylated species from transferring between wells). Wells were filled with 65 μL of Fluorescence Buffer for optimum 6-FAM™ fluorescence. Plates were read in a FLUOSTAR OPTIMA™ (BMG Labtech, Offenburg, Germany) with a 490 nm excitation and 520 nm emission filters (10 nm bandpass) with the gain optimized for maximum signal. The timecourses thus collected were designated Cleavage Courses. Plates were removed and irradiated with 306 nm ultraviolet radiation for 10 minutes to cleave the PC biotin linker. They were then washed inverted with at least 5-fold excess Streptavidin Wash Buffer, filled with 65 μL of Fluorescence Buffer, and again read as above. These timecourses were designated Cleavage+Crossover Courses (FIG. 4A).
All timecourses were fitted by nonlinear regression with un-weighted least-squares methods using SIGMAPLOT™ 8.0 (SYSTAT Software, Inc., Point Richmond, Calif., U.S.A.) (also used for graph construction). Timecourses with blanked signals in arbitrary fluorescence units were scaled by curve mean in groups of at least four replicates, culled for outliers, and averaged by time point. On average, one replicate time point was culled from each group of four used. The averaged curves were fitted to a simple, three-parameter exponential decay equation (Equation 1), time versus signal, and converted into units of concentration.
where t is time in seconds, y0+a is the initial signal, b is a constant that determines the shape of the curve. […]

[1] = first EC50 block, mass concentration
[2] = second block, mass concentration

T1 sequence (P14565 1-306): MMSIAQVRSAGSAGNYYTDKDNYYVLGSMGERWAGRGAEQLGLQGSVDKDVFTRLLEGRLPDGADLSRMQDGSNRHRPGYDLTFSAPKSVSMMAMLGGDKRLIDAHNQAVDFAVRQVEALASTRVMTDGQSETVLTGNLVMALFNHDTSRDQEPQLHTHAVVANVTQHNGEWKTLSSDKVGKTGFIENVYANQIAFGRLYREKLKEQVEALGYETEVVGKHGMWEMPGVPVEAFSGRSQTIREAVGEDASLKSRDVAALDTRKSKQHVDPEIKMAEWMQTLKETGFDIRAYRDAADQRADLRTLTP

## O=P(O)(O)NP(=O)(O)O [pNp, imidodiphosphate]
F− recipient cells; [1]
  EC50: 105 µg/mL
F− recipient cells; first EC50 block
  EC50: 593 ± 3.5 µM
  Selectivities by EC50, Donors: 1.7E+03
  Selectivities by EC50, Transconj.: 1.1E+02
F− recipient cells; [2]
  EC50: 6000 µg/mL
F− recipient cells; second block
  EC50: 35000 µM
  Selectivities by EC50, Donors: 8.0E−01
  Selectivities by EC50, Transconj.: 4.0E−00
transconjugants; first EC50 block
  EC50: 5 µM
  Selectivities by EC50, Donors: 1.5E+01
transconjugants; [1]
  EC50: 0.936 µg/mL
transconjugants; second block
  EC50: 9000 µM
  Selectivities by EC50, Donors: 2.0E−01
transconjugants; [2]
  EC50: 2000 µg/mL
F+ or F− cells; clear wells after 24 hr. incubation, read-out: 24 hr. MIC bounds, upper
  MIC: 100 mM (≈ 17700 µg/mL)
F+ or F− cells; turbid wells after 24 hr. incubation, read-out: 24 hr. MIC bounds, lower
  MIC: 12.5 mM (≈ 2210 µg/mL)
F plasmid TraI N300; Cleavage, C-B/E Direct Linear Plot, read-out: Kic
  Ki: 0.00242 µM
F plasmid TraI N300; Cleavage, C-B/E Direct Linear Plot, read-out: Kiu
  Ki: 0.00265 µM
F plasmid TraI N300; Cleavage, M/M Nonlinear Regression, competitive inhibition constant, apparent, read-out: Kic
  Ki: 0.0023 ± 0.00026 µM
F plasmid TraI N300; Cleavage, M/M Nonlinear Regression, uncompetitive inhibition constant, apparent, read-out: Kiu
  Ki: 0.00317 ± 0.00032 µM
F plasmid TraI N300; Crossover, C-B/E Direct linear Plot, read-out: Kic
  Ki: 0.00159 µM
F plasmid TraI N300; Crossover, C-B/E Direct linear Plot, read-out: Kiu
  Ki: 0.00324 µM
F plasmid TraI N300; Crossover, M/M Nonlinear Regression, read-out: Kic
  Ki: 0.000885 ± 0.000543 µM
F plasmid TraI N300; DNA cleavage, read-out: inhibition constants (Ki values) for both competitive and uncompetitive modes (Kic and Kiu)
  Ki: 0.0025 to 0.003 µM
F plasmid TraI N300; DNA crossover, read-out: Kic
  Ki: 0.0009 to 0.0016 µM
F plasmid TraI N300; DNA crossover, read-out: Kiu
  Ki: 0.0032 µM
